According to patent publication US3983103A, “N-(Benzenesulfonyl)-erythromycylamine derivatives” (PLIVA Pharmaceutical and Chemical Works, priority 1973, dated 1976):
Values after ≈ are worked out from the molar mass of the structure shown.

Legend:
Type in all cases: cell-based
E. coli = assay: antibacterial spectrum in vitro (Table I), MIC
Pseudomonas aeruginosa = assay: antibacterial spectrum in vitro (Table I), MIC
Text: (§1) The above Table I illustrates antibacterial spectrum in vitro, using some pathogene microorganisms freshly isolated from patients.

Klebsiella aerogenes = assay: antibacterial spectrum in vitro (Table I), MIC
Text: as §1

[1] = test system: Streptococcus haemolyticus; assay: antibacterial spectrum in vitro (Table I), MIC
Text: as §1

[2] = test system: Staphylococcus pyog. aureus; assay: antibacterial spectrum in vitro (Table I), MIC
Text: as §1

Enterococcus = assay: antibacterial spectrum in vitro (Table I), MIC
Text: as §1

Diplococcus pneumoniae = assay: antibacterial spectrum in vitro (Table I), MIC
Text: as §1

Proteus mirabilis = assay: antibacterial spectrum in vitro (Table I), MIC
[3] = test system: Streptococcus haemolyticus 69; assay: testing against a set of organisms (Table II), MIC; conditions: Streptococcus haemolyticus 69, Table II
[4] = test system: Streptococcus haemolyticus 099; assay: testing against a set of organisms (Table II), MIC; conditions: Streptococcus haemolyticus 099, Table II
[5] = test system: Staphylococcus aureus 736; assay: testing against a set of organisms (Table II), MIC; conditions: Staphylococcus aureus 736, Table II
[6] = test system: Staphylococcus aureus 372; assay: testing against a set of organisms (Table II), MIC; conditions: Staphylococcus aureus 372, Table II
Enterococcus 45 = assay: testing against a set of organisms (Table II), MIC; conditions: Enterococcus 45, Table II
Enterococcus 242 = assay: testing against a set of organisms (Table II), MIC; conditions: Enterococcus 242, Table II
Enterococcus 146 = assay: testing against a set of organisms (Table II), MIC; conditions: Enterococcus 146, Table II
Enterococcus 325 = assay: testing against a set of organisms (Table II), MIC; conditions: Enterococcus 325, Table II

MIC [5] | MIC [6] | MIC (Enterococcus 45) | MIC (Enterococcus 242) | MIC (Enterococcus 146) | MIC (Enterococcus 325) | Structure (SMILES) | MIC (E. coli) | MIC (Pseudomonas aeruginosa) | MIC (Klebsiella aerogenes) | MIC [1] | MIC [2] | MIC (Enterococcus) | MIC (Diplococcus pneumoniae) | MIC (Proteus mirabilis) | MIC [3] | MIC [4]
15.6 µg/mL (≈ 15.6 µM) | 3.9 µg/mL (≈ 3.9 µM) | 7.8 µg/mL (≈ 7.79 µM) | 7.8 µg/mL (≈ 7.79 µM) | 3.9 µg/mL (≈ 3.9 µM) | 3.9 µg/mL (≈ 3.9 µM) | CCC1OC(=O)C(C)C(OC2CC(C)(OC)C(O)C(C)O2)C(C)C(OC2OC(C)CC(N(C)C)C2O)C(C)(O)CC(C)C(NS(=O)(=O)c2ccc(I)cc2)C(C)C(O)C1(C)O (stereo not drawn) [EAI, N-(4-iodo-benzenesulfonyl)erythromycylamine] | – | – | – | – | – | – | – | – | 0.9 µg/mL (≈ 0.899 µM) | 0.9 µg/mL (≈ 0.899 µM)
31.2 µg/mL (≈ 34.5 µM) | 7.8 µg/mL (≈ 8.64 µM) | 7.8 µg/mL (≈ 8.64 µM) | 3.9 µg/mL (≈ 4.32 µM) | 7.8 µg/mL (≈ 8.64 µM) | 3.9 µg/mL (≈ 4.32 µM) | CCc1ccc(S(=O)(=O)NC2C(C)CC(C)(O)C(OC3OC(C)CC(N(C)C)C3O)C(C)C(OC3CC(C)(OC)C(O)C(C)O3)C(C)C(=O)OC(CC)C(C)(O)C(O)C2C)cc1 (stereo not drawn) [EAE, N-(4-ethyl-benzenesulfonyl)erythromycylamine] | – | – | – | – | – | – | – | – | 0.9 µg/mL (≈ 0.996 µM) | 0.9 µg/mL (≈ 0.996 µM)
31.2 µg/mL (≈ 35.1 µM) | 15.6 µg/mL (≈ 17.5 µM) | 7.8 µg/mL (≈ 8.77 µM) | 3.9 µg/mL (≈ 4.39 µM) | 15.6 µg/mL (≈ 17.5 µM) | 7.8 µg/mL (≈ 8.77 µM) | CCC1OC(=O)C(C)C(OC2CC(C)(OC)C(O)C(C)O2)C(C)C(OC2OC(C)CC(N(C)C)C2O)C(C)(O)CC(C)C(NS(=O)(=O)c2ccccc2C)C(C)C(O)C1(C)O (stereo not drawn) [o-EAT, N-(2-methyl-benzenesulfonyl)erythromycylamine] | – | – | – | – | – | – | – | – | 0.9 µg/mL (≈ 1.01 µM) | 1.9 µg/mL (≈ 2.14 µM)
31.2 µg/mL (≈ 34.9 µM) | 15.6 µg/mL (≈ 17.5 µM) | 7.8 µg/mL (≈ 8.73 µM) | 3.9 µg/mL (≈ 4.37 µM) | 7.8 µg/mL (≈ 8.73 µM) | 7.8 µg/mL (≈ 8.73 µM) | CCC1OC(=O)C(C)C(OC2CC(C)(OC)C(O)C(C)O2)C(C)C(OC2OC(C)CC(N(C)C)C2O)C(C)(O)CC(C)C(NS(=O)(=O)c2ccc(F)cc2)C(C)C(O)C1(C)O (stereo not drawn) [EAF, N-(4-fluoro-benzenesulfonyl)erythromycylamine] | – | – | – | – | – | – | – | – | 3.9 µg/mL (≈ 4.37 µM) | < 0.9 µg/mL
15.6 µg/mL (≈ 16.5 µM) | 15.6 µg/mL (≈ 16.5 µM) | 62.5 µg/mL (≈ 66.1 µM) | 31.2 µg/mL (≈ 33 µM) | 7.8 µg/mL (≈ 8.24 µM) | 62.5 µg/mL (≈ 66.1 µM) | CCC(=O)Nc1ccc(S(=O)(=O)NC2C(C)CC(C)(O)C(OC3OC(C)CC(N(C)C)C3O)C(C)C(OC3CC(C)(OC)C(O)C(C)O3)C(C)C(=O)OC(CC)C(C)(O)C(O)C2C)cc1 (stereo not drawn) [EAPr, N-(4-propionylamino-benzenesulfonyl)erythromycylamine] | – | – | – | – | – | – | – | – | 0.9 µg/mL (≈ 0.951 µM) | 0.9 µg/mL (≈ 0.951 µM)

Further lines, the compound ahead of its results:

Structure (SMILES) | MIC [5] | MIC [6] | MIC (Enterococcus 45) | MIC (Enterococcus 242) | MIC (Enterococcus 146) | MIC (Enterococcus 325) | MIC (E. coli) | MIC (Pseudomonas aeruginosa) | MIC (Klebsiella aerogenes) | MIC [1] | MIC [2] | MIC (Enterococcus) | MIC (Diplococcus pneumoniae) | MIC (Proteus mirabilis) | MIC [3] | MIC [4]
CCC1OC(=O)C(C)C(OC2CC(C)(OC)C(O)C(C)O2)C(C)C(OC2OC(C)CC(N(C)C)C2O)C(C)(O)CC(C)C(NS(=O)(=O)c2ccc(Br)cc2)C(C)C(O)C1(C)O (stereo not drawn) [EABr, N-(4-bromo-benzenesulfonyl)erythromycylamine] | 7.8 µg/mL (≈ 8.18 µM) | 3.9 µg/mL (≈ 4.09 µM) | 7.8 µg/mL (≈ 8.18 µM) | 3.9 µg/mL (≈ 4.09 µM) | 3.9 µg/mL (≈ 4.09 µM) | 3.9 µg/mL (≈ 4.09 µM) | 125.0 µg/mL (≈ 131 µM) | 250.0 µg/mL (≈ 262 µM) | 62.5 µg/mL (≈ 65.5 µM) | 0.9 µg/mL (≈ 0.943 µM) | 31.2 µg/mL (≈ 32.7 µM) | 1.9 µg/mL (≈ 1.99 µM) | 3.9 µg/mL (≈ 4.09 µM) | 250 µg/mL (≈ 262 µM) | 0.9 µg/mL (≈ 0.943 µM) | 0.9 µg/mL (≈ 0.943 µM)
CCC1OC(=O)C(C)C(OC2CC(C)(OC)C(O)C(C)O2)C(C)C(OC2OC(C)CC(N(C)C)C2O)C(C)(O)CC(C)C(NS(=O)(=O)c2ccc(Cl)cc2)C(C)C(O)C1(C)O (stereo not drawn) [EACl, N-(4-chloro-benzenesulfonyl)erythromycylamine] | 31.2 µg/mL (≈ 34.3 µM) | 3.9 µg/mL (≈ 4.29 µM) | 3.9 µg/mL (≈ 4.29 µM) | 3.9 µg/mL (≈ 4.29 µM) | 7.8 µg/mL (≈ 8.58 µM) | 7.8 µg/mL (≈ 8.58 µM) | 62.5 µg/mL (≈ 68.7 µM) | 250.0 µg/mL (≈ 275 µM) | 125 µg/mL (≈ 137 µM) | 0.9 µg/mL (≈ 0.989 µM) | 31.2 µg/mL (≈ 34.3 µM) | 3.9 µg/mL (≈ 4.29 µM) | 1.9 µg/mL (≈ 2.09 µM) | 250 µg/mL (≈ 275 µM) | 0.9 µg/mL (≈ 0.989 µM) | 0.9 µg/mL (≈ 0.989 µM)
CCC1OC(=O)C(C)C(OC2CC(C)(OC)C(O)C(C)O2)C(C)C(OC2OC(C)CC(N(C)C)C2O)C(C)(O)CC(C)C(NS(=O)(=O)c2ccc(NC(C)=O)cc2)C(C)C(O)C1(C)O (stereo not drawn) [EAAc, N-(4-acetylamino-benzenesulfonyl)erythromycylamine] | 31.2 µg/mL (≈ 33.5 µM) | 15.6 µg/mL (≈ 16.7 µM) | 125.0 µg/mL (≈ 134 µM) | 62.5 µg/mL (≈ 67 µM) | 31.2 µg/mL (≈ 33.5 µM) | 62.5 µg/mL (≈ 67 µM) | – | 250.0 µg/mL (≈ 268 µM) | 62.5 µg/mL (≈ 67 µM) | 0.45 µg/mL (≈ 0.483 µM) | 15.6 µg/mL (≈ 16.7 µM) | 1.9 µg/mL (≈ 2.04 µM) | 1.9 µg/mL (≈ 2.04 µM) | 125 µg/mL (≈ 134 µM) | 0.9 µg/mL (≈ 0.965 µM) | 1.9 µg/mL (≈ 2.04 µM)
CCC1OC(=O)C(C)C(OC2CC(C)(OC)C(O)C(C)O2)C(C)C(OC2OC(C)CC(N(C)C)C2O)C(C)(O)CC(C)C(NS(=O)(=O)c2ccc(C)cc2)C(C)C(O)C1(C)O (stereo not drawn) [EAT, N-(4-methyl-benzenesulfonyl)erythromycylamine] | 15.6 µg/mL (≈ 17.5 µM) | 7.8 µg/mL (≈ 8.77 µM) | 7.8 µg/mL (≈ 8.77 µM) | 3.9 µg/mL (≈ 4.39 µM) | 7.8 µg/mL (≈ 8.77 µM) | 7.8 µg/mL (≈ 8.77 µM) | 62.2 µg/mL (≈ 70 µM) | 250.0 µg/mL (≈ 281 µM) | 250 µg/mL (≈ 281 µM) | 0.9 µg/mL (≈ 1.01 µM) | 31.2 µg/mL (≈ 35.1 µM) | 3.9 µg/mL (≈ 4.39 µM) | 1.9 µg/mL (≈ 2.14 µM) | 250 µg/mL (≈ 281 µM) | 0.9 µg/mL (≈ 1.01 µM) | 0.9 µg/mL (≈ 1.01 µM)
CC[C@H]1OC(=O)[C@H](C)[C@@H](O[C@H]2C[C@@](C)(OC)[C@@H](O)[C@H](C)O2)[C@H](C)[C@@H](O[C@@H]2O[C@H](C)C[C@H](N(C)C)[C@H]2O)[C@](C)(O)C[C@@H](C)C(=O)[C@H](C)[C@@H](O)[C@]1(C)O [E, erythromycin, reference compound] | – | – | – | – | – | – | 250 µg/mL (≈ 341 µM) | 500 µg/mL (≈ 681 µM) | 500 µg/mL (≈ 681 µM) | 31.2 µg/mL (≈ 42.5 µM) | 62.5 µg/mL (≈ 85.2 µM) | 31.2 µg/mL (≈ 42.5 µM) | 62.5 µg/mL (≈ 85.2 µM) | 500 µg/mL (≈ 681 µM) | – | –
